Experiments:
Assay type in all cases: cell-based
[1] = test system: E. coli DH5α; test: Antibacterial activity: MIC and growth curve against E. coli DH5α in 96-well plate; conditions: minimal inhibitory concentration against E. coli DH5α; 96-well plate, 5×10^5 CFU/mL, 37° C., judged after 8 h
Outline: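 MIC taken as lowest protein level with no bacterial growth, tracked by A600 every 30 min during 37 °C, 175 rpm culture. Two-fold protein series 50-12.5 μg/mL final, triplicate wells, against 5×10^5 CFU/mL of LB-washed mid-log cells.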

[2] = test system: E. coli BL21; test: MIC against Gram-negative bacteria: E. coli BL21; conditions: for MIC against E. coli BL21: 96-well plate, 37° C., 10 h
Outline: (§1)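 Bacteria grown in LB at 37° C to McFarland 0.5, resuspended and seeded at 5×10^5 CFU/mL in 96-well plates. Purified human EGF-domain proteins two-fold serially diluted, triplicate wells; cultured at 37° C, shaking 175 rpm. MIC = lowest protein concentration with no growth.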

[3] = test system: Pseudomonas aeruginosa; test: MIC against Gram-negative bacteria: Pseudomonas aeruginosa; conditions: for MIC against P. aeruginosa: Pseudomonas aeruginosa, 96-well plate, 37° C., 10 h
Outline: as §1

[4] = test system: Klebsiella pneumonia; test: MIC against Gram-negative bacteria: Klebsiella pneumonia; conditions: for MIC against K. pneumonia: Klebsiella pneumonia, 96-well plate, 37° C., 10 h
Outline: as §1

[5] = test system: Enterobacter cloacae; test: MIC against Gram-negative bacteria: Enterobacter cloacae; conditions: for MIC against E. cloacae: Enterobacter cloacae, 96-well plate, 37° C., 10 h
Outline: as §1

[6] = test system: Aeromonas hydrophila; test: MIC against Gram-negative bacteria: Aeromonas hydrophila; conditions: for MIC against A. hydrophila: Aeromonas hydrophila, 96-well plate, 37° C., 10 h
Outline: as §1

[7] = test system: Citrobacter diversus; test: MIC against Gram-negative bacteria: Citrobacter diversus; conditions: for MIC against C. diversus: Citrobacter diversus, 96-well plate, 37° C., 10 h
Outline: as §1

[8] = test system: Moraxella catarrhalis; test: MIC against Gram-negative bacteria: Moraxella catarrhalis; conditions: for MIC against M. catarrhalis: Moraxella catarrhalis, 96-well plate, 37° C., 10 h
Outline: as §1

[9] = test system: Proteus mirabilis; test: MIC against Gram-negative bacteria: Proteus mirabilis; conditions: for MIC against P. mirabilis: Proteus mirabilis, 96-well plate, 37° C., 10 h
Outline: as §1

[10] = test system: Proteus vulgaris; test: MIC against Gram-negative bacteria: Proteus vulgaris; conditions: for MIC against P. vulgaris: Proteus vulgaris, 96-well plate, 37° C., 10 h
Outline: as §1

[11] = test system: Serratia marcescens; test: MIC against Gram-negative bacteria: Serratia marcescens; conditions: for MIC against S. marcescens: Serratia marcescens, 96-well plate, 37° C., 10 h
Outline: as §1

[12] = 10 h cultivation at 37° C., 5×10^5 CFU/mL, two-fold serial dilution
[13] = E. coli BL21, 10 h cultivation at 37° C., 5×10^5 CFU/mL
[14] = P. aeruginosa, 10 h cultivation at 37° C., 5×10^5 CFU/mL
[15] = K. pneumonia, 10 h cultivation at 37° C., 5×10^5 CFU/mL
[16] = E. cloacae, 10 h cultivation at 37° C., 5×10^5 CFU/mL
[17] = A. hydrophila, 10 h cultivation at 37° C., 5×10^5 CFU/mL
[18] = C. diversus, 10 h cultivation at 37° C., 5×10^5 CFU/mL
[19] = M. catarrhalis, 10 h cultivation at 37° C., 5×10^5 CFU/mL
[20] = P. mirabilis, 10 h cultivation at 37° C., 5×10^5 CFU/mL
[21] = P. vulgaris, 10 h cultivation at 37° C., 5×10^5 CFU/mL
[22] = S. marcescens, 10 h cultivation at 37° C., 5×10^5 CFU/mL

With “PRT1166 (DTPEGVRYISSNVCGPHGKCKSQSGGKFTCDCNKGFTGTYCH; listed as Homo sapiens)” the MIC [1] was 50 µg/mL, the “MIC E. coli BL21” value [2, 12] was 12.5 µg/mL and the “MIC P. aeruginosa” value [3, 12] was 25 µg/mL. For the same substance, the “MIC K. pneumonia” value [4, 12] was 50 µg/mL, the “MIC E. cloacae” value [5, 12] was 25 µg/mL and the “MIC A. hydrophila” value [6, 12] was 25 µg/mL. The “MIC C. diversus” value [7, 12] was 12.5 µg/mL, the “MIC M. catarrhalis” value [8, 12] was 50 µg/mL and the “MIC P. mirabilis” value [9, 12] was 12.5 µg/mL. The “MIC P. vulgaris” value [10, 12] was 50 µg/mL and the “MIC S. marcescens” value [11, 12] was 12.5 µg/mL.
“PRT894 (NLDDCASSPCDSGTCLDKIDGYECACEPGYTGSMCN; listed as Homo sapiens)” was tested, and the MIC [1] was 12.5 µg/mL, the MIC ([2]; E. coli BL21, 10 h cultivation at 37° C.) was 50 µg/mL and the MIC ([3]; P. aeruginosa, 10 h cultivation at 37° C.) was 12.5 µg/mL. For the same substance, the MIC ([4]; K. pneumonia, 10 h cultivation at 37° C.) was 50 µg/mL, the MIC ([5]; E. cloacae, 10 h cultivation at 37° C.) was 12.5 µg/mL and the MIC ([6]; A. hydrophila, 10 h cultivation at 37° C.) was 50 µg/mL. It also gave an MIC ([7]; C. diversus, 10 h cultivation at 37° C.) of 12.5 µg/mL, an MIC ([8]; M. catarrhalis, 10 h cultivation at 37° C.) of 50 µg/mL and an MIC ([9]; P. mirabilis, 10 h cultivation at 37° C.) of 12.5 µg/mL. For the same substance, the MIC ([10]; P. vulgaris, 10 h cultivation at 37° C.) was 50 µg/mL and the MIC ([11]; S. marcescens, 10 h cultivation at 37° C.) was 12.5 µg/mL.
In the case of “PRT1270 (DVDECSLDRTCDHSCINHPGTFACACNRGYTLYGFTHCG; listed as Homo sapiens)”, the MIC [1] is reported as 50 µg/mL, the “MIC against E. coli BL21” value ([2]; E. coli BL21, 5×10^5 CFU/mL) is reported as 12.5 µg/mL and the “MIC against P. aeruginosa” value ([3]; 5×10^5 CFU/mL) is reported as 50 µg/mL. The “MIC against K. pneumonia” value ([4]; 5×10^5 CFU/mL) was 12.5 µg/mL, the “MIC against E. cloacae” value ([5]; 5×10^5 CFU/mL) was 50 µg/mL and the “MIC against A. hydrophila” value ([6]; 5×10^5 CFU/mL) was 25 µg/mL. The “MIC against C. diversus” value ([7]; 5×10^5 CFU/mL) was 12.5 µg/mL, the “MIC against M. catarrhalis” value ([8]; 5×10^5 CFU/mL) was 25 µg/mL and the “MIC against P. mirabilis” value ([9]; 5×10^5 CFU/mL) was 50 µg/mL. For the same substance, the “MIC against P. vulgaris” value ([10]; 5×10^5 CFU/mL) was 25 µg/mL and the “MIC against S. marcescens” value ([11]; 5×10^5 CFU/mL) was 12.5 µg/mL.
In the case of “PRT1213 (HSDYCSQNTCLNGGKCSWTHGAGYVCKCPPQFSGKHCE; listed as Homo sapiens)”, the MIC [1] is reported as 25 µg/mL, the “MIC against E. coli BL21” value ([2]; E. coli BL21, 5×10^5 CFU/mL) is reported as 25 µg/mL and the “MIC against P. aeruginosa” value ([3]; 5×10^5 CFU/mL) is reported as 50 µg/mL. The “MIC against K. pneumonia” value ([4]; 5×10^5 CFU/mL) was 25 µg/mL, the “MIC against E. cloacae” value ([5]; 5×10^5 CFU/mL) was 100 µg/mL and the “MIC against A. hydrophila” value ([6]; 5×10^5 CFU/mL) was 50 µg/mL. The “MIC against C. diversus” value ([7]; 5×10^5 CFU/mL) was 25 µg/mL, the “MIC against M. catarrhalis” value ([8]; 5×10^5 CFU/mL) was 12.5 µg/mL and the “MIC against P. mirabilis” value ([9]; 5×10^5 CFU/mL) was 25 µg/mL. The “MIC against P. vulgaris” value ([10]; 5×10^5 CFU/mL) was 50 µg/mL and the “MIC against S. marcescens” value ([11]; 5×10^5 CFU/mL) was 25 µg/mL.
“PRT804 (HGAHCELRCPCQNGGTCHHITGECACPPGWTGAVCA; listed as Homo sapiens)” was tested, and the MIC [1] was 12.5 µg/mL, the “MIC (μg/mL) E. coli BL21” value [2, 13] was 50 µg/mL and the “MIC (μg/mL) P. aeruginosa” value [3, 14] was 12.5 µg/mL. For the same substance, the “MIC (μg/mL) K. pneumonia” value [4, 15] was 50 µg/mL, the “MIC (μg/mL) E. cloacae” value [5, 16] was 12.5 µg/mL and the “MIC (μg/mL) A. hydrophila” value [6, 17] was 12.5 µg/mL. For the same substance, the “MIC (μg/mL) C. diversus” value [7, 18] was 12.5 µg/mL, the “MIC (μg/mL) M. catarrhalis” value [8, 19] was 50 µg/mL and the “MIC (μg/mL) P. mirabilis” value [9, 20] was 12.5 µg/mL. The “MIC (μg/mL) P. vulgaris” value [10, 21] was 25 µg/mL and the “MIC (μg/mL) S. marcescens” value [11, 22] was 50 µg/mL.
For “PRT1324 (PITSCLEQTGKCHPLASCQSTSSGVWSCVCQEGYEGDGFL; listed as Homo sapiens)”, the MIC [1] was 12.5 µg/mL, the “MIC against E. coli BL21” value ([2]; E. coli BL21, 5×10^5 CFU/mL) was 25 µg/mL and the “MIC against P. aeruginosa” value ([3]; 5×10^5 CFU/mL) was 50 µg/mL. For the same substance, the “MIC against K. pneumonia” value ([4]; 5×10^5 CFU/mL) was 25 µg/mL, the “MIC against E. cloacae” value ([5]; 5×10^5 CFU/mL) was 12.5 µg/mL and the “MIC against A. hydrophila” value ([6]; 5×10^5 CFU/mL) was 50 µg/mL. For the same substance, the “MIC against C. diversus” value ([7]; 5×10^5 CFU/mL) was 25 µg/mL, the “MIC against M. catarrhalis” value ([8]; 5×10^5 CFU/mL) was 12.5 µg/mL and the “MIC against P. mirabilis” value ([9]; 5×10^5 CFU/mL) was 25 µg/mL. The “MIC against P. vulgaris” value ([10]; 5×10^5 CFU/mL) was 12.5 µg/mL and the “MIC against S. marcescens” value ([11]; 5×10^5 CFU/mL) was 25 µg/mL.
“PRT838 (GLQECSAYCGSHGTCASPLGPCRCEPGFLGRACD; listed as Homo sapiens)” was tested, and the MIC [1] was 50 µg/mL, the “MIC (μg/mL) E. coli BL21” value [2, 13] was 12.5 µg/mL and the “MIC (μg/mL) P. aeruginosa” value [3, 14] was 50 µg/mL. For the same substance, the “MIC (μg/mL) K. pneumonia” value [4, 15] was 12.5 µg/mL, the “MIC (μg/mL) E. cloacae” value [5, 16] was 25 µg/mL and the “MIC (μg/mL) A. hydrophila” value [6, 17] was 50 µg/mL. For the same substance, the “MIC (μg/mL) C. diversus” value [7, 18] was 25 µg/mL, the “MIC (μg/mL) M. catarrhalis” value [8, 19] was 12.5 µg/mL and the “MIC (μg/mL) P. mirabilis” value [9, 20] was 25 µg/mL. For the same substance, the “MIC (μg/mL) P. vulgaris” value [10, 21] was 12.5 µg/mL and the “MIC (μg/mL) S. marcescens” value [11, 22] was 25 µg/mL.
